From ChEMBL document CHEMBL5506035, “Discovery of Glutamate Carboxypeptidase III Ligands to Compete the Uptake of [177Lu]Lu-PSMA-617 in Healthy Organs” (J Med Chem, 2024) come the findings set out here.

Calls of active or inactive are those of the source. No cut-off for these calls is given here.

Test [1] concerns the target T1, N-acetylated-alpha-linked acidic dipeptidase 2 (Homo sapiens, UniProt Q9Y3Q0). Briefly: Displacement of [177Lu]LU-PSMA-617 from human recombinant GCPIII assessed as dissociation constant by fluorescence polarization assay. (In general: Fluorescence polarisation rises when a labelled molecule tumbles more slowly, as on binding a larger partner.)
For test [2], the target named is T2, Glutamate carboxypeptidase 2 (Homo sapiens, UniProt Q04609). Briefly: Displacement of [177Lu]LU-PSMA-617 from human recombinant PSMA assessed as dissociation constant by fluorescence polarization assay.
Target sequence in this assay (Q04609 whole entry): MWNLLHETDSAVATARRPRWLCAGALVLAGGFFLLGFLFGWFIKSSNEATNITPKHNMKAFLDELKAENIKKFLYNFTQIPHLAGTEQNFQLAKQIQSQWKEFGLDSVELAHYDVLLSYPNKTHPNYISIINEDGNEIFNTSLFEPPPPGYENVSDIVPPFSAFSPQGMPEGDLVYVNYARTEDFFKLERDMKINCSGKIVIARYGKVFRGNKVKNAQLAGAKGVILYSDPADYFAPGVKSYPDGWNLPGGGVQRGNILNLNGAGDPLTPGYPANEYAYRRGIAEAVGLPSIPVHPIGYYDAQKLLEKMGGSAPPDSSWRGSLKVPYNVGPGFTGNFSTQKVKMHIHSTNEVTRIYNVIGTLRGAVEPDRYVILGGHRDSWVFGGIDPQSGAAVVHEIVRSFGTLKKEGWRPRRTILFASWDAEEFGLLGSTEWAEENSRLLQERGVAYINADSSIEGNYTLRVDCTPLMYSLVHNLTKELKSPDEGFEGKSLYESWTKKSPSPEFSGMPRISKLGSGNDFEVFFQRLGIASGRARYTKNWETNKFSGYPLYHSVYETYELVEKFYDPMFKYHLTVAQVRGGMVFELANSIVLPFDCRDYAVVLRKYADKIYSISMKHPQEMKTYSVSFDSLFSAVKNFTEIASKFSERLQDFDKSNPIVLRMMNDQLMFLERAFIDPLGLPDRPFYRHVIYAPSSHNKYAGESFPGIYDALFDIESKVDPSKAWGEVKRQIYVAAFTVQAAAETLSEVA
The target of test [3] is T1, N-acetylated-alpha-linked acidic dipeptidase 2. Briefly: Binding affinity to human recombinant GCPIII assessed as dissociation constant by fluorescence polarization assay.
For test [4], the target named is T2, Glutamate carboxypeptidase 2. Briefly: Binding affinity to human recombinant PSMA assessed as dissociation constant by fluorescence polarization assay.
Target sequence in this assay (Q04609 whole entry): as above
For test [5] the target is unchanged. Put plainly: Displacement of [177Lu]LU-PSMA-617 from PSMA in human salivary gland assessed as residual activity at 10 uM incubated for 1 hr by autoradiography analysis relative to control. It counts as tissue-based.
Target sequence in this assay (Q04609 whole entry, looked up): as the sequence (Q04609 whole entry) above
The species entered for test [6] is Homo sapiens. Briefly: Ratio of Kd for binding affinity to human recombinant GCPIII assessed as dissociation constant by fluorescence polarization assay to Kd for binding affinity to human recombinant PSMA assessed as dissociation constant by fluorescence polarization assay.
For test [7], the target named is T2, Glutamate carboxypeptidase 2. Put plainly: Displacement of [177Lu]LU-PSMA-617 from human PSMA at 10 to 100 uM incubated for 15 mins by manual size-exclusion chromatography analysis. The note with it: dose 10-100 µM. For orientation: In gel filtration, larger molecules generally elute earlier.
Target sequence in this assay (Q04609 whole entry, looked up): as the sequence (Q04609 whole entry) above

T1 sequence (Q9Y3Q0 whole entry): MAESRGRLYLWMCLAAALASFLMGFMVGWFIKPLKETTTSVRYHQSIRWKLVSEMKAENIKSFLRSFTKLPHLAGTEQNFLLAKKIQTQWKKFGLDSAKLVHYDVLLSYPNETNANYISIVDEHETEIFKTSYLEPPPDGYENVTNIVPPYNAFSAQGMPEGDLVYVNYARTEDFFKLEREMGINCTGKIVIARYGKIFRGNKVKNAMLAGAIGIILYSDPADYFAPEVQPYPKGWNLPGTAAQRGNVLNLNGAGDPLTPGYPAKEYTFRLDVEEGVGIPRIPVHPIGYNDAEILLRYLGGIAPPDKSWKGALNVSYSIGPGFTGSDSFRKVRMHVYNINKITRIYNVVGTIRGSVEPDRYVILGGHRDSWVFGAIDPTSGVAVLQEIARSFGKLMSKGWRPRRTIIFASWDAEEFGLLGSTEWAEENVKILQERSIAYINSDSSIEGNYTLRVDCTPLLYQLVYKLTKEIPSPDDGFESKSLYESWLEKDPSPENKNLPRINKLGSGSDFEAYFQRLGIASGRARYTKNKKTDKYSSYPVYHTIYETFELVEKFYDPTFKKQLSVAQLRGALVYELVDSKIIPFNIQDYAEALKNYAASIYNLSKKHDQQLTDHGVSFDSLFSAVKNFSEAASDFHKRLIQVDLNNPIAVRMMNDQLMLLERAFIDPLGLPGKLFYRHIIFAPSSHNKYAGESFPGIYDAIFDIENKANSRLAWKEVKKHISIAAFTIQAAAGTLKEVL

As a reminder, the Kd is a measure of binding affinity in units of concentration. Consider `NCCCC[C@H](NC(=O)[C@@H]1C[C@@H](NC(=O)c2c[nH]nn2)CN1C(=O)c1c[nH]nn1)C(=O)O`, for which the Kd in test [1] was 17000 nM; in test [2], greater than 20 µM.

On to `CC(=O)N[C@@H]1C[C@@H](C(=O)N[C@@H](CCCCNC(=S)Nc2ccc3c(c2)C(=O)OC32c3ccc(O)cc3Oc3cc(O)ccc32)C(=O)O)N(C(=O)c2cnoc2C2CC2)C1`, for which the Kd in test [3] was greater than 2600 nM.

For the compound `O=C1OC2(c3ccc(O)cc3Oc3cc(O)ccc32)c2ccc(NC(=S)NCCCC[C@H](NC(=O)[C@@H]3C[C@@H](n4cc(-c5c[nH]nn5)nn4)CN3C(=O)c3cnoc3C3CC3)C(=O)O)cc21`, the Kd in test [3] is greater than 300 nM.

With `O=C(N[C@@H]1C[C@@H](C(=O)N[C@@H](CCCCNC(=S)Nc2ccc3c(c2)C(=O)OC32c3ccc(O)cc3Oc3cc(O)ccc32)C(=O)O)N(C(=O)c2cnoc2-c2ccccc2)C1)c1c[nH]nn1`, the values for the Kd in test [3] and in test [4] were 6.4 nM and 23 nM, respectively.

Turning to `O=C(NCCCC[C@H](NC(=O)[C@@H]1C[C@@H](NC(=O)c2c[nH]nn2)CN1C(=O)c1cnoc1C1CC1)C(=O)O)c1c[nH]nn1`, the Kd in test [1] is 12 nM; in test [2], greater than 20 µM.

In the case of `O=C(NC[C@H](NC(=O)[C@@H]1C[C@@H](NC(=O)c2c[nH]nn2)CN1C(=O)c1cnoc1C1CC1)C(=O)O)c1c[nH]nn1`, the Kd in test [1] amounted to 8 nM; in test [2], 1.3 µM.

Regarding `O=C(N[C@@H]1C[C@@H](C(=O)O)N(C(=O)c2cnoc2C2CC2)C1)c1c[nH]nn1`, the Kd is 300 nM in test [1] and greater than 20 µM in test [2].

Take `CC(=O)N1C[C@H](NC(=O)c2c[nH]nn2)C[C@H]1C(=O)N[C@@H](CCCCNC(=S)Nc1ccc2c(c1)C(=O)OC21c2ccc(O)cc2Oc2cc(O)ccc21)C(=O)O`: the dissociation constant (Kd) in test [3] is 169 nM; in test [4], greater than 1000 nM.

For `O=C(N[C@@H]1C[C@@H](C(=O)N[C@@H](CNC(=S)Nc2ccc3c(c2)C(=O)OC32c3ccc(O)cc3Oc3cc(O)ccc32)C(=O)O)N(C(=O)c2cnoc2C2CC2)C1)c1c[nH]nn1`, the values for the Kd in test [3] and in test [4] were 6.3 nM and greater than 1000 nM, respectively. Moreover, the Activity in test [5] worked out at 44%.

Turning to `O=C(NCCCCNC(=O)NCCCC[C@H](NC(=O)[C@@H]1C[C@@H](NC(=O)c2c[nH]nn2)CN1C(=O)c1cnoc1C1CC1)C(=O)O)NCCCC[C@H](NC(=O)[C@@H]1C[C@@H](NC(=O)c2c[nH]nn2)CN1C(=O)c1cnoc1C1CC1)C(=O)O`, the results for the Kd in test [1] and in test [2] were 53 nM and 13 µM, respectively.

As to `O=C(N[C@@H]1C[C@@H](C(=O)N[C@H](CCCCNC(=S)Nc2ccc3c(c2)C(=O)OC32c3ccc(O)cc3Oc3cc(O)ccc32)C(=O)O)N(C(=O)c2cnoc2C2CC2)C1)c1c[nH]nn1`, the dissociation constant Kd in test [3] is 23 nM; in test [4], greater than 1000 nM.

With `CC(=O)NCCCC[C@H](NC(=O)[C@@H]1C[C@@H](NC(=O)c2c[nH]nn2)CN1C(=O)c1cnoc1C1CC1)C(=O)O`, the Kd in test [1] was 41 nM; in test [2], greater than 20 µM.

As to `CC(=O)NC[C@H](NC(=O)[C@@H]1C[C@@H](NC(=O)c2c[nH]nn2)CN1C(=O)c1cnoc1C1CC1)C(=O)O`, the dissociation constant Kd is 2000 nM in test [1] and greater than 20 µM in test [2].

As for `O=C(NCCCC[C@H](NC(=O)[C@@H]1C[C@@H](NC(=O)c2c[nH]nn2)CN1C(=O)c1c[nH]nn1)C(=O)O)c1c[nH]nn1`, the Kd in test [1] was 12 nM; in test [2], greater than 20 µM.

Turning to `O=C(N[C@@H]1C[C@@H](C(=O)N[C@@H](CCCCNC(=S)Nc2ccc3c(c2)C(=O)OC32c3ccc(O)cc3Oc3cc(O)ccc32)C(=O)O)N(C(=O)c2cnoc2C2CC2)C1)c1nc[nH]n1`, the Kd in test [3] was greater than 300 nM.

Take `CC(C)c1nocc1C(=O)N1C[C@H](NC(=O)c2c[nH]nn2)C[C@H]1C(=O)N[C@@H](CCCCNC(=S)Nc1ccc2c(c1)C(=O)OC21c2ccc(O)cc2Oc2cc(O)ccc21)C(=O)O`: the Kd in test [3] is 30 nM; in test [4], greater than 1000 nM.

For the compound `O=C(CCOCCOCCOCCOCCOCCOCCOCCOCCOCCOCCC(=O)NCCCC[C@H](NC(=O)[C@@H]1C[C@@H](NC(=O)c2cnn[nH]2)CN1C(=O)c1cnoc1C1CC1)C(=O)O)NCCCC[C@H](NC(=O)[C@@H]1C[C@@H](NC(=O)c2cnn[nH]2)CN1C(=O)c1cnoc1C1CC1)C(=O)O`, the Kd is 505 nM in test [1] and greater than 20 µM in test [2].

For the compound `CC(=O)NCCCC[C@H](NC(=O)[C@@H]1C[C@@H](NC(=O)c2c[nH]nn2)CN1C(=O)c1c[nH]nn1)C(=O)O`, the figures for the Kd in test [1] and in test [2] were 6400 nM and 15 µM, respectively.

On to `CC(C)c1oncc1C(=O)N1C[C@H](NC(=O)c2c[nH]nn2)C[C@H]1C(=O)N[C@@H](CCCCNC(=S)Nc1ccc2c(c1)C(=O)OC21c2ccc(O)cc2Oc2cc(O)ccc21)C(=O)O`, for which the Kd was determined as 4.3 nM in test [3] and 178 nM in test [4].

As to `CCCCCCNC(=S)Nc1ccc2c(c1)C(=O)OC21c2ccc(O)cc2Oc2cc(O)ccc21`, in test [5], the Activity is 92%.

As for `CC(=O)NC[C@H](NC(=O)[C@@H]1C[C@@H](NC(=O)c2c[nH]nn2)CN1C(=O)c1c[nH]nn1)C(=O)O`, the values for the Kd in test [1] and in test [2] were 67 nM and greater than 20 µM, respectively.

Regarding `NCCCC[C@H](NC(=O)[C@@H]1C[C@@H](NC(=O)c2c[nH]nn2)CN1C(=O)c1cnoc1C1CC1)C(=O)O`, the Kd is 13000 nM in test [1] and greater than 20 µM in test [2].

`O=C(N[C@@H]1C[C@@H](C(=O)NCCCCCCNC(=S)Nc2ccc3c(c2)C(=O)OC32c3ccc(O)cc3Oc3cc(O)ccc32)N(C(=O)c2cnoc2C2CC2)C1)c1c[nH]nn1`: the dissociation constant Kd was 7 nM in test [3] and 48 nM in test [4].

On to `CC(=O)NCCCC[C@H](NC(=O)[C@@H]1C[C@@H](NC(=O)c2c[nH]nn2)CN1C(=O)c1cnoc1C1CC1)C(=O)Nc1c[nH]nn1`, for which the Kd in test [1] is 3200 nM; in test [2], greater than 20 µM.

In the case of `COc1ccc(C2=[N+]3C(=Cc4c(C)c(CCC(=O)NCCCC[C@H](NC(=O)[C@@H]5C[C@@H](NC(=O)c6c[nH]nn6)CN5C(=O)c5cnoc5C5CC5)C(=O)O)c(C)n4[B-]3(F)F)C=C2)cc1`, the results for the Kd in test [3] and in test [4] were 15 nM and greater than 1000 nM, respectively.

In the case of `O=C(N[C@@H](CCCCNC(=S)Nc1ccc2c(c1)C(=O)OC21c2ccc(O)cc2Oc2cc(O)ccc21)C(=O)O)c1c[nH]nn1`, the Ratio in test [6] was determined as 20. Besides, the Kd in test [3] is 87 nM.

With `N=c1ccc2c(-c3ccc(C(=O)NCCCC[C@H](NC(=O)[C@@H]4C[C@@H](NC(=O)c5c[nH]nn5)CN4C(=O)c4cnoc4C4CC4)C(=O)O)cc3C(=O)O)c3ccc(N)c(S(=O)(=O)O)c3oc-2c1S(=O)(=O)O`, the Kd in test [3] was 4.5 nM; in test [4], greater than 1000 nM.

`O=C(NC[C@H](NC(=O)[C@@H]1C[C@@H](NC(=O)c2c[nH]nn2)CN1C(=O)c1c[nH]nn1)C(=O)O)c1c[nH]nn1`: the Kd worked out at 1.5 nM in test [1] and 0.231 µM in test [2].

On to `O=C(N[C@@H]1C[C@@H](C(=O)N[C@@H](CCCCNC(=S)Nc2ccc3c(c2)C(=O)OC32c3ccc(O)cc3Oc3cc(O)ccc32)C(=O)O)N(C(=O)c2c[nH]nn2)C1)c1c[nH]nn1`, for which the Kd is 4.8 nM in test [3] and greater than 1000 nM in test [4].

As to `O=C(NCCCC[C@H](NC(=O)[C@@H]1C[C@@H](NC(=O)c2c[nH]nn2)CN1C(=O)c1c[nH]nn1)C(=O)Nc1c[nH]nn1)c1c[nH]nn1`, the Kd was 338 nM in test [1] and greater than 20 µM in test [2].

Consider `NC[C@H](NC(=O)[C@@H]1C[C@@H](NC(=O)c2c[nH]nn2)CN1C(=O)c1c[nH]nn1)C(=O)O`, for which the results for the Kd in test [1] and in test [2] were 10000 nM and greater than 20 µM, respectively.

On to `Cn1nncc1C(=O)N[C@@H]1C[C@@H](C(=O)N[C@@H](CCCCNC(=S)Nc2ccc3c(c2)C(=O)OC32c3ccc(O)cc3Oc3cc(O)ccc32)C(=O)O)N(C(=O)c2cnoc2C2CC2)C1`, for which the equilibrium dissociation constant (Kd) in test [3] was greater than 500 nM.

`O=C(N[C@@H]1C[C@@H](C(=O)NCCOCCOCCNC(=S)Nc2ccc3c(c2)C(=O)OC32c3ccc(O)cc3Oc3cc(O)ccc32)N(C(=O)c2cnoc2C2CC2)C1)c1c[nH]nn1`: the figures for the Kd in test [3] and in test [4] were 24 nM and 310 nM, respectively.

For the compound `O=C(N[C@@H]1C[C@@H](C(=O)N[C@@H](CCCCNC(=S)Nc2ccc3c(c2)C(=O)OC32c3ccc(O)cc3Oc3cc(O)ccc32)C(=O)O)N(C(=O)c2cnoc2C2CC2)C1)c1c[nH]cn1`, the Kd in test [3] is greater than 300 nM.

On to `O=C(Cn1ccnn1)N[C@@H]1C[C@@H](C(=O)N[C@@H](CCCCNC(=S)Nc2ccc3c(c2)C(=O)OC32c3ccc(O)cc3Oc3cc(O)ccc32)C(=O)O)N(C(=O)c2cnoc2C2CC2)C1`, for which the Kd in test [3] is greater than 500 nM.

`COC(=O)[C@H](CCCCNC(=S)Nc1ccc2c(c1)C(=O)OC21c2ccc(O)cc2Oc2cc(O)ccc21)NC(=O)[C@@H]1C[C@@H](NC(=O)c2c[nH]nn2)CN1C(=O)c1cnoc1C1CC1`: the Kd was 12 nM in test [3] and 332 nM in test [4].

For `Cc1[nH]nnc1C(=O)N[C@@H]1C[C@@H](C(=O)N[C@@H](CCCCNC(=S)Nc2ccc3c(c2)C(=O)OC32c3ccc(O)cc3Oc3cc(O)ccc32)C(=O)O)N(C(=O)c2cnoc2C2CC2)C1`, in test [3], the Kd is greater than 500 nM.

Take `O=C(O)CC[C@H](NC(=O)N[C@@H](CCCCNC(=O)[C@H](Cc1ccc2ccccc2c1)NC(=O)[C@H]1CC[C@H](CNC(=O)CN2CCN(CC(=O)O)CCN(CC(=O)O)CCN(CC(=O)O)CC2)CC1)C(=O)O)C(=O)O`: the outcome in test [7] was inactive.

Consider `O=C1OC2(c3ccc(O)cc3Oc3cc(O)ccc32)c2ccc(NC(=S)NCCCC[C@H](NC(=O)[C@@H]3C[C@@H](Cc4c[nH]nn4)CN3C(=O)c3cnoc3C3CC3)C(=O)O)cc21`, for which the Kd was 106 nM in test [3] and greater than 1000 nM in test [4].

For the compound `Cn1cc(C(=O)N[C@@H]2C[C@@H](C(=O)N[C@@H](CCCCNC(=S)Nc3ccc4c(c3)C(=O)OC43c4ccc(O)cc4Oc4cc(O)ccc43)C(=O)O)N(C(=O)c3cnoc3C3CC3)C2)nn1`, the Kd in test [3] is greater than 500 nM.
